Data reported in US5482996A, “Protein-containing polymers and a method of synthesis of protein-containing polymers in organic solvents” (University of Pittsburgh, priority 1993, dated 1996).
Starred links: 1 amine or outer side, 2 acyl side, 3 side chain; linkers in the order of their positions; H or OH if unused. Residues, ends and D or L forms follow the SMILES beside them. *: point of attachment. pNA = O=[N+]([O-])c1ccc(N*)cc1; Suc = O=C(CCC(=O)[*:2])[*:1]

Tests used:
Test in all cases: Hydrolysis of peptide p-nitroanilide substrate, kinetic constants
Assay type in all cases: biochemical
[1] = molecular target: T1, Subtilisin Carlsberg, native (pure subtilisin standard) (Bacillus licheniformis, UniProt P00780)
T1 construct: purchased Sigma Chemical Co
T1 sequence (P00780 106-379): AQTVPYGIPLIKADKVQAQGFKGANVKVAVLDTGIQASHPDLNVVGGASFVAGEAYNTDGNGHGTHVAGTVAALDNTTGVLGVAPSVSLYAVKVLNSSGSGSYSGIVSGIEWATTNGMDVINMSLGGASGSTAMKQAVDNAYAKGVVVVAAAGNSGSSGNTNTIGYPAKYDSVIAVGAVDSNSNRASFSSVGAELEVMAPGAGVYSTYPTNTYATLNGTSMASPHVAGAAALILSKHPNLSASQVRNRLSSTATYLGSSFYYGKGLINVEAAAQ
Method: (§1) Kinetic studies of the modified protein were performed using substrate (N-succinyl-L-alanyl-L-alanyl-L-prolyl-L-phenylalanyl p-nitroanilide) in 0.1M Tris-HCl buffer, pH 8.6. The purified HPLC fractions (three total) were tested for activity while increasing the substrate concentrations in equal increments. Substrate concentration versus rate was plotted to determine Vmax and Km using non-linear regression analysis. A standard of pure subtilisin was analyzed as a control.
(§2) As set forth above, the activity of the modified enzymes was assessed with the artificial peptide substrate succinyl-L-alanyl-L-alanyl-L-prolyl-L-phenylalanyl p-nitroanilide. A sample of 30 mg modified protein powder was dissolved in tetrahydrofuran, and filtered with a solvent resistant 0.22 μm filter in order to remove the insoluble native protein. The solvent was evaporated and, as mentioned above, values for Vmax and Km were determined.

[2] = molecular target: T2, Subtilisin Carlsberg, doubly modified with PEG monomethacrylate (MW 8,000) (Bacillus licheniformis, UniProt P00780)
T2 construct: purchased Sigma Chemical Co
T2 sequence (P00780 106-379): T1 sequence (P00780 106-379)
Method: as §1
(§3) Before reacting PEG-subtilisin with other materials it is necessary to fully characterize the activity and stability of the "bio-monomer". Using solubility, IMAC, and HPLC the modified protein was separated into predominantly singly or doubly modified protein fractions. […] Thus, the activities and stabilities noted are average properties for the sample being studied. For comparison to the native protein, unmodified protein was purified from the modification reaction mixture and characterized to some degree.
as §2

[3] = molecular target: T3, Subtilisin Carlsberg, singly modified with PEG monomethacrylate (MW 8,000) (Bacillus licheniformis, UniProt P00780); details: 25% dioxane/75% buffer
T3 construct: purchased Sigma Chemical Co
T3 sequence (P00780 106-379): T1 sequence (P00780 106-379)
Method: as §1, §3, §2

[4] = molecular target: T4, Subtilisin Carlsberg, unmodified fraction purified from the PEG modification reaction mixture (Bacillus licheniformis, UniProt P00780)
T4 construct: purchased Sigma Chemical Co
T4 sequence (P00780 106-379): T1 sequence (P00780 106-379)
Method: as §1, §3, §2

Question: How did the Vmax ([1]; 25% dioxane/75% buffer) turn out when `C[C@H](NC(=O)CCC(=O)O)C(=O)N[C@@H](C)C(=O)N1CCC[C@H]1C(=O)N[C@@H](Cc1ccccc1)C(=O)Nc1ccc([N+](=O)[O-])cc1` [N-succinyl-L-alanyl-L-alanyl-L-prolyl-L-phenylalanyl p-nitroanilide] (Suc-AAPF-pNA) was run?
Answer: 66.2 ΔA412/sec/mg protein

Question: And the Vmax ([1]; Tris-HCl buffer (0.1M, pH 8.6))?
Answer: 108 ΔA412/sec/mg protein

Question: And the Vmax ([2]; 25% dioxane/75% buffer)?
Answer: 1.8 ΔA412/sec/mg protein

Question: What about the Vmax ([2]; Tris-HCl buffer (0.1M, pH 8.6)) of the same molecule?
Answer: 1.6 ΔA412/sec/mg protein

Question: What about the Vmax [3] of the same molecule?
Answer: 5.3 ΔA412/sec/mg protein

Question: And the Vmax ([4]; 25% dioxane/75% buffer)?
Answer: 2.9 ΔA412/sec/mg protein

Question: What about the Vmax ([4]; Tris-HCl buffer (0.1M, pH 8.6)) of the same molecule?
Answer: 2.2 ΔA412/sec/mg protein
